This experiment concerns heart rhythm of a patient. In words: Clinical data: oral levosimendan in a patient with wandering atrial pacemaker, first degree AV block, junctional rhythm. Type of experiment: in vivo, human. As for the experimental part: The underlying heart rhythm of a patient on intravenous milrinone was wandering atrial pacemaker with a first degree AV block alternating with a junctional rhythm and sinus rhythm. The overall heart rate was around 70 bpm. Because of failure to wean the milrinone the patient was entered into oral levosimendan first at 1 mg followed by 2 mg and subsequently by 4 mg qd. […] Their levosimendan dose was reduced to 2 mg and maintained at that dose during the taper of intravenous milrinone. […] Milrinone was tapered off and the patient could be transferred out of the intensive care unit. The patient's dose of levosimendan was continued at 1 mg three times a day.

Data on one molecule can be found in US6911209B1, “Method of treating sick sinus syndrome with levosimendan” (Orion Corporation, priority 1999, dated 2005).

Molecules are shown by their SMILES.

Regarding `CC1CC(=O)NN=C1c1ccc(NN=C(C#N)C#N)cc1` (single isomer, unassigned; (-)) [levosimendan, (−)-[[4-(1,4,5,6-tetrahydro-4-methyl-6-oxo-3-pyridazinyl)phenyl]hydrazono]propanedinitrile], the cardiac rhythm entry (levosimendan 2 mg during taper of intravenous milrinone) was “regularize with a vast majority of the beats being sinus node in origin”. For the setting “levosimendan dose reduced to 2 mg, maintained during taper of intravenous milrinone”, the overall heart rate is on record as 80-85 bpm. In addition, the heart rate result (oral levosimendan 1 mg, then 2 mg, then 4 mg qd, patient on intravenous milrinone, baseline around 70 bpm) is “over 90 bpm”.
